# Assay results: US6180844A, “Composition containing fluorescence-generating substrate” (Aisin Seiki Kabushiki Kaisha, priority 1998, dated 2001)
# Test system: human chromosome
# Test: In-situ hybridization of a human chromosome: fluorescence-generating substrate reacted with probe-bonded peroxidase and hydrogen peroxide, observed by fluorescence microscope
# Design: key to Intensity of Fluorescence / Binding: +++: Very strong.; ++: Strong.; +: Weak.; ±: Very weak.; -: Not detected
# Conditions: for Binding: binding of the substrate to the chromosome, same reaction conditions; for Intensity of Fluorescence: human chromosome sample from peripheral blood lymphocytes, substrate in 0.01% hydrogen peroxide, room temperature 30 minutes, fluorescence microscope; for fluorescent signals observed: summary of Table 1
# Text: A human chromosome sample was hybridized with a digoxigenin-labeled, full-length human DNA probe, to which was bonded a peroxidase-labeled anti-digoxigenin antibody. This was reacted with any of fluorescence-generating substrates of the invention (Compounds 1 to 11) or with a comparative substrate of a commercially available, water-soluble fluorescent substrate, 3-(4-hydroxyphenyl)propionic acid (HPPA). […] The full-length human DNA probe hybridizes entirely with the human chromosome. Therefore, if the fluorescence-generating substrates tested herein are reacted in a reaction system comprising peroxidase and hydrogen peroxide, the entire chromosome in the system shall be seen to emit fluorescence in the fluorescence-microscopic observation.
# The procedure is as follows:
# Human chromosome samples were prepared from cultured human peripheral blood lymphocytes. Full-length human DNA was labeled with digoxigenin through nick translation, collected through ethanol precipitation, and dissolved in formamide to prepare a digoxigenin-labeled, full-length human DNA probe. Each human chromosome sample was immersed in a denaturing solution kept heated at 70° C., for 2 minutes, and then rapidly cooled by putting it into 70% ethanol cooled to 4° C., whereby the double-stranded DNA of the sample was kept dissociated in a single-stranded condition. The probe was kept in a water bath at 75° C. for 10 minutes, and then rapidly cooled in ice water with 5 minutes, whereby the double-stranded DNA of the probe was kept dissociated in a single-stranded condition. This probe was mixed with a hybridization solution, put on the human chromosome sample, and reacted with it overnight at 37° C. (in-situ hybridization).
# After having been hybridized, the system was washed with a solution of 50% formamide/2×SSC at 37° C. for 15 minutes, then with 2×SSC at room temperature for 15 minutes, and then with 4×SSC at room temperature for 5 minutes, thereby removing the excess, non-hybridized probe therefrom. Next, a pcroxidase-labeled anti-digoxigenin antibody was diluted with a 1% blocking solution into a 1/100 dilution, and the resulting enzyme-labeled antibody dilution was put on the sample, and maintained at 37° C. for 1 hour. The excess enzyme antibody not bonded to the probe was removed by washing the system with a washing solution containing a surfactant. Any of the fluorescence-generating substrates (Compounds 1 to 11) of the invention and a commercially-available, water-soluble fluorescent substrate, HPPA was dissolved in a reactant solution containing 0.01% hydrogen peroxide […], and the resulting fluorescent substrate solution was put on the sample and reacted with it at room temperature for 30 minutes. After reacting in the reaction system comprising the probe-bonded peroxidase and hydrogen peroxide, the fluorescence-generating substrate formed a new compound which was fixed on the chromosome and emitted fluorescence, which was observed using a fluorescence microscopic.
# The full-length human DNA probe hybridizes with the entire chromosome, with the result that the entire chromosome was stained with the fluorescence-generating substrate. Sample were processed with any of the fluorescent substrates (Compounds 1 to 11) as well as the commercially-available, water-soluble fluorescent substrate, […]. […] In addition, the binding of the substrate to the chromosome was checked.
Structure (SMILES),Binding,Intensity of Fluorescence,fluorescent signals observed,binding of the enzymatic reaction product to the chromosome (product after the enzymatic reaction)
Cc1cc(O)ccc1NC(=O)c1ccccc1C [Compound 9],++,++,–,–
"Cc1cc(C)c(C(=O)Nc2ccc(O)cc2C)c(C)c1 [Compound 10, 4-hydroxy-2-methylphenyl-2,4,6-trimethylbenzamide]",++,++,–,–
"O=C(O)CCCCCNC(=O)CCc1ccc(O)cc1 [Compound 11, 6-{3-(4-hydroxyphenyl)propionamido}hexanoic acid]",+++,+++,high-intensity fluorescent signals were observed,–
"O=C(O)CCc1ccc(O)cc1 [HPPA, 3-(4-hydroxyphenyl)propionic acid, reference compound]",+,±,few fluorescent signals were detected,soluble in water or could not bind to the chromosome
